Measured values taken from the supplement of paper PMC10307832.

Experiments:
Assay in all cases: relative viability (nuclei count vs DMSO), 5 days (fraction); higher = more cells survive
[1] = compound: CC(C)C[C@H](NC(=O)[C@H](CCc1ccccc1)NC(=O)CN1CCOCC1)C(=O)N[C@@H](Cc1ccccc1)C(=O)N[C@@H](CC(C)C)C(=O)[C@@]1(C)CO1 [Carfilzomib] + CC(=O)c1c(C)c2cnc(Nc3ccc(N4CCNCC4)cn3)nc2n(C2CCCC2)c1=O [Palbociclib] (partner 0.5 µM)
Method in brief: (§1)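 One day after seeding in 1536-well plates, lung cancer cell lines were dosed by pin tool. Dosing was either single-drug or a fixed anchor-drug dose plus five library-drug doses (not always all listed) in √10 steps. After 5 days, nuclei were stained in one fix-and-stain step and counted on 4× images, and relative viability is the nuclei count of treated wells over that of vehicle wells, given as the median of duplicate plates.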

Olaparib + Pictilisib = compound: O=C(c1cc(Cc2n[nH]c(=O)c3ccccc23)ccc1F)N1CCN(C(=O)C2CC2)CC1 [Olaparib] + CS(=O)(=O)N1CCN(Cc2cc3nc(-c4cccc5[nH]ncc45)nc(N4CCOCC4)c3s2)CC1 [Pictilisib] (partner 1 µM)
Method in brief: as §1

Olaparib + Linsitinib = compound: O=C(c1cc(Cc2n[nH]c(=O)c3ccccc23)ccc1F)N1CCN(C(=O)C2CC2)CC1 [Olaparib] + C[C@]1(O)C[C@@H](c2nc(-c3ccc4ccc(-c5ccccc5)nc4c3)c3c(N)nccn32)C1 [Linsitinib] (partner 1 µM)
Method in brief: as §1

Olaparib + Alpelisib = compound: O=C(c1cc(Cc2n[nH]c(=O)c3ccccc23)ccc1F)N1CCN(C(=O)C2CC2)CC1 [Olaparib] + Cc1nc(NC(=O)N2CCC[C@H]2C(N)=O)sc1-c1ccnc(C(C)(C)C(F)(F)F)c1 [Alpelisib] (partner 2 µM)
Method in brief: as §1

| Cell Line | relative viability ([1]; first compound 0.001 µM) | relative viability ([1]; first compound 0.003162 µM) | relative viability ([1]; first compound 0.01 µM) | relative viability ([1]; first compound 0.03162 µM) | relative viability ([1]; first compound 0.1 µM) | relative viability (Olaparib + Pictilisib; first compound 0.08 µM) | relative viability (Olaparib + Pictilisib; first compound 0.253 µM) | relative viability (Olaparib + Pictilisib; first compound 2.53 µM) | relative viability (Olaparib + Pictilisib; first compound 8 µM) | relative viability (Olaparib + Linsitinib; first compound 0.08 µM) | relative viability (Olaparib + Linsitinib; first compound 0.253 µM) | relative viability (Olaparib + Linsitinib; first compound 2.53 µM) | relative viability (Olaparib + Linsitinib; first compound 8 µM) | relative viability (Olaparib + Alpelisib; first compound 0.08 µM) | relative viability (Olaparib + Alpelisib; first compound 0.253 µM) | relative viability (Olaparib + Alpelisib; first compound 2.53 µM) | relative viability (Olaparib + Alpelisib; first compound 8 µM) |
| --- | --- | --- | --- | --- | --- | --- | --- | --- | --- | --- | --- | --- | --- | --- | --- | --- | --- |
| NCI-H1975 | 0.364 | 0.635 | 0.472 | 0.119 | 0.107 | 0.309 | 0.27 | 0.284 | 0.266 | 1.02 | 0.95 | 0.9 | 0.895 | 0.764 | 0.594 | 0.692 | 0.612 |
| NCI-H1993 | 0.667 | 0.658 | 0.641 | 0.723 | 0.383 | 0.827 | 0.839 | 0.719 | 0.869 | 0.745 | 0.749 | 0.831 | 0.78 | 0.691 | 0.657 | 0.746 | 0.742 |
| NCI-H2009 | 0.186 | 0.275 | 0.201 | 0.0584 | 0.0475 | 0.996 | 0.71 | 0.693 | 0.475 | 1.28 | 1.17 | 1.09 | 0.928 | 1.28 | 1.03 | 1.09 | 0.976 |
| NCI-H2023 | 0.341 | 0.344 | 0.405 | 0.235 | 0.0653 | 0.286 | 0.195 | 0.245 | 0.275 | 0.754 | 0.608 | 0.535 | 0.469 | 0.64 | 0.512 | 0.58 | 0.501 |
| NCI-H2085 | 0.501 | 0.47 | 0.456 | 0.371 | 0.265 | 0.468 | 0.433 | 0.427 | 0.368 | 0.982 | 0.868 | 0.819 | 0.677 | 1.08 | 0.883 | 0.92 | 0.835 |
| NCI-H2087 | 0.194 | 0.343 | 0.192 | 0.0427 | 0.0568 | 0.967 | 0.797 | 0.8 | 0.508 | 0.984 | 0.912 | 0.83 | 0.685 | 1.21 | 0.95 | 1.02 | 0.706 |
| NCI-H2126 | 0.374 | 0.372 | 0.337 | 0.346 | 0.278 | 0.544 | 0.504 | 0.513 | 0.556 | 0.808 | 0.641 | 0.698 | 0.7 | 0.794 | 0.743 | 0.712 | 0.728 |
| NCI-H2228 | 0.466 | 0.886 | 0.557 | 0.104 | 0.105 | 0.429 | 0.418 | 0.292 | 0.336 | 0.686 | 0.629 | 0.698 | 0.434 | 0.746 | 0.657 | 0.78 | 0.534 |
| NCI-H2347 | 0.463 | 0.427 | 0.438 | 0.382 | 0.332 | 1.28 | 0.557 | 0.683 | 0.547 | 1.03 | 0.879 | 0.823 | 0.816 | 1.11 | 0.978 | 0.932 | 0.783 |
| NCI-H2405 | 0.498 | 0.527 | 0.539 | 0.489 | 0.136 | 0.524 | 0.406 | 0.426 | 0.469 | 1.15 | 0.93 | 0.915 | 0.851 | 1.01 | 0.816 | 0.728 | 0.73 |
| NCI-H3122 | 0.238 | 0.222 | 0.191 | 0.187 | 0.132 | 0.629 | 0.532 | 0.587 | 0.627 | 0.95 | 1.04 | 0.954 | 0.899 | 0.7 | 0.638 | 0.867 | 0.668 |
| PC-3 [JPC-3] | 0.516 | 0.539 | 0.564 | 0.502 | 0.333 | 0.857 | 0.592 | 0.712 | 0.673 | 0.93 | 0.914 | 0.962 | 0.908 | 1.01 | 1.01 | 1.01 | 0.989 |
| PC-14 | 0.558 | 0.597 | 0.437 | 0.05 | 0.0508 | 0.872 | 0.59 | 0.601 | 0.466 | 1.02 | 0.856 | 0.859 | 0.815 | 0.988 | 0.859 | 0.931 | 0.792 |
| RERF-LC-KJ | 1.07 | 1.04 | 1.27 | 0.837 | 0.193 | 0.491 | 0.522 | 0.648 | 0.526 | 0.939 | 0.903 | 0.948 | 0.902 | 0.826 | 0.806 | 0.845 | 0.883 |
| SK-LU-1 | 0.331 | 0.442 | 0.336 | 0.266 | 0.171 | 0.608 | 0.569 | 0.602 | 0.353 | 1.34 | 0.998 | 1.02 | 0.622 | 1.14 | 0.859 | 0.837 | 0.554 |
| SK-MES-1 | 0.387 | 0.344 | 0.34 | 0.282 | 0.183 | 0.399 | 0.297 | 0.355 | 0.328 | 1.14 | 0.996 | 1.05 | 0.796 | 0.925 | 0.764 | 1.02 | 0.697 |
| SW 1573 | 0.396 | 0.5 | 0.235 | 0.0595 | 0.0481 | 0.526 |  | 0.508 | 0.381 | 0.893 | 0.889 | 0.661 | 0.73 | 0.715 | 0.667 | 0.627 | 0.471 |
| UMC-11 | 0.378 | 0.325 | 0.343 | 0.343 | 0.277 | 0.909 | 0.687 | 0.658 | 0.307 | 1.03 | 0.974 | 0.798 | 0.504 | 1.08 | 0.877 | 0.825 | 0.409 |
